From patent US20060276525A1, “Processes of preparing highly pure telmisartan form A, suitable for pharmaceutical compositions” (priority 2005, published 2006)
Read-outs that look alike come from different tables or passages of the source.

Tests used:
Type in all cases: physicochemical
[1] = Average particle size measurement (Malvern Mastersizer 2000, particle size distribution); conditions: for Particle size distribution D(v,0.1) / Particle size distribution D(v,0.2) / Particle size distribution D(v,0.8) / Particle size distribution D(v,0.95) / Particle size distribution D(v,0.98) / Particle size distribution D(v,1.0) / Particle size distribution D(v,0.5) / Particle size distribution D(v,0.9): carrier liquid water; for Particle size distribution D(v,0.5): size for 50% of the particles; for Particle size distribution D(v,0.9): size for 90% of the particles; for D(V, 0.9): in µm (unit assumed)
Method: Average Particle Size Measurement: Particle size was measured by Malvern model Mastersizer 2000, equipped with Malvern Hydro G circulation cell. Carrier: liquid:water. System description: Measuring range: from 0.02-2000 μm. Accuracy: 1% on the Dv50 Light sources: Red light-helium neon laser. Blue light-solid state light source.

[2] = Flowability / electrostatic charging of the ground material; conditions: ground by conventional mill
[3] = Bulk density (tapped density tester VanKel 50-2300)
Method: Bulk Density: Bulk density was measured using tapped density tester dual-platform model VanKel 50-2300 (Varian Inc.). System specifications. Speed: nominal rate of 300 taps per minute, Accuracy: Actual setting±1 tap, Drop height: 14±2 mm. Platform rotation: 5-15 rotations/minute.

[4] = listed as Telmisartan form A, obtained by crystallization from DMSO
[5] = listed as Telmisartan form A, obtained by crystallization from water
[6] = Sonicated material with no milling

CCCc1nc2c(C)cc(-c3nc4ccccc4n3C)cc2n1Cc1ccc(-c2ccccc2C(=O)O)cc1 [Example 1, Telmisartan]
Particle size distribution D(v,0.1) [1]: 1.60 μ
Particle size distribution D(v,0.2) [1]: 2.25 μ
Particle size distribution D(v,0.8) [1]: 11.46 μ
Particle size distribution D(v,0.95) [1]: 22.21 μ
Particle size distribution D(v,0.98) [1]: 29.03 μ
Particle size distribution D(v,1.0) [1]: 52.87 μ
Particle size distribution D(v,0.5) [1]: 4.98 μ
Particle size distribution D(v,0.5) [1, 4]: about 5 μ
Particle size distribution D(v,0.9) [1]: 16.78 μ
Particle size distribution D(v,0.9) [1, 4]: about 17 μ
Flowability of ground material [2]: free flowing crystalline powder that does not tend to gain electrostatic charge upon grinding
Bulk density [3]: about 0.3 g/ml
Bulk density [3, 4]: about 0.3 g/ml

CCCc1nc2c(C)cc(-c3nc4ccccc4n3C)cc2n1Cc1ccc(-c2ccccc2C(=O)O)cc1 [Example 2, Telmisartan]
Particle size distribution D(v,0.1) [1]: 0.35 μ
Particle size distribution D(v,0.2) [1]: 0.85 μ
Particle size distribution D(v,0.8) [1]: 11.90 μ
Particle size distribution D(v,0.95) [1]: 23.03 μ
Particle size distribution D(v,0.98) [1]: 30.08 μ
Particle size distribution D(v,1.0) [1]: 52.871 μ
Particle size distribution D(v,0.5) [1]: 4.33 μ
Particle size distribution D(v,0.5) [1, 5]: about 4.3 μ
Particle size distribution D(v,0.9) [1]: 17.48 μ
Particle size distribution D(v,0.9) [1, 5]: about 17.5 μ
Bulk density [3, 5]: about 0.22 g/ml

CCCc1nc2c(C)cc(-c3nc4ccccc4n3C)cc2n1Cc1ccc(-c2ccccc2C(=O)O)cc1 [Example 4, Telmisartan]
Particle size distribution D(v,0.1) [1]: 1.08 μ
Particle size distribution D(v,0.2) [1]: 1.45 μ
Particle size distribution D(v,0.8) [1]: 6.04 μ
Particle size distribution D(v,0.95) [1]: 12.07 μ
Particle size distribution D(v,0.98) [1]: 16.13 μ
Particle size distribution D(v,1.0) [1]: 33.57 μ
Particle size distribution D(v,0.5) [1]: 2.83 μ
Particle size distribution D(v,0.5) ([1]; listed as Telmisartan form A, obtained by crystallization from DMF): less than 3 μ
Particle size distribution D(v,0.9) [1]: 8.97 μ

CCCc1nc2c(C)cc(-c3nc4ccccc4n3C)cc2n1Cc1ccc(-c2ccccc2C(=O)O)cc1 [Example 7, Telmisartan]
D(V, 0.1) ([1]; Ground material): 0.7 µm
D(V, 0.5) ([1]; Ground material): 3.3 µm
D(V, 0.9) ([1]; Ground material): 19.1
D(V, 0.1) [1, 6]: 0.8 µm
D(V, 0.5) [1, 6]: 8.1 µm
D(V, 0.9) [1, 6]: 24.7
D(V, 0.1) ([1]; Un-milled material): 51.4 µm
D(V, 0.5) ([1]; Un-milled material): 245 µm
D(V, 0.9) ([1]; Un-milled material): 578.2
